# Assays:
# [1] = biological target: DPP-4 (Homo sapiens, UniProt P27487); assay: In vitro protease stability: DPP-4 half-life assay; assay type: in vitro ADME; settings: recombinant DPP-4 enzyme, pH 7.4
# [2] = biological target: human GLP-1R (Homo sapiens, UniProt P43220); assay: In vitro GLP-1 receptor potency, cAMP signaling; assay type: cell-based; settings: In vitro receptor activity cAMP assay (EC50), CRE-Luc reporter, BHK cells expressing human GLP-1R; mean ± SD, three independent experiments
# [3] = Murine plasma pharmacokinetic; assay type: in vivo, male ICR mice
# [4] = male, ICR, mouse, plasma, iv, 1 mg kg-1
# Sequence of DPP-4 (P27487 whole entry): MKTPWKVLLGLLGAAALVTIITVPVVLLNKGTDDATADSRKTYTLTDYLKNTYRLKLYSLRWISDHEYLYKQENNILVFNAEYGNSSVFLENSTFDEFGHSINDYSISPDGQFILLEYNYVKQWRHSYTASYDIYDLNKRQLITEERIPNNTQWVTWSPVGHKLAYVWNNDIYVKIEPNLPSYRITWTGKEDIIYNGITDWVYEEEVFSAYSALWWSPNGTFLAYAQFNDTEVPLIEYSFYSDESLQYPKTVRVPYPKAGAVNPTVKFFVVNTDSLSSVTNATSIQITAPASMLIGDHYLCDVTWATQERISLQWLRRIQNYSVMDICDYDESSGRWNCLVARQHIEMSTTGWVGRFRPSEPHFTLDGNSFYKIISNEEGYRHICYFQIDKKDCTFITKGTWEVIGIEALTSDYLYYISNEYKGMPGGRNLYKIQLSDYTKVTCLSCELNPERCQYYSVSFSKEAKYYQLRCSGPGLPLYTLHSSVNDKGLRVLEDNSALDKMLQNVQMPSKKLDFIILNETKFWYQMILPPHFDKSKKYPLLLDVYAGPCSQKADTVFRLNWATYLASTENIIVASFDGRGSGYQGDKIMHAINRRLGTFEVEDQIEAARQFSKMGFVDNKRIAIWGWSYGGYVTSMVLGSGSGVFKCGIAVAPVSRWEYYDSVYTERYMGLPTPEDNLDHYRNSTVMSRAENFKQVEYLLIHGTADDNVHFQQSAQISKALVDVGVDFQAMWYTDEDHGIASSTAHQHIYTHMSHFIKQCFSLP
# Sequence of human GLP-1R (P43220 24-463): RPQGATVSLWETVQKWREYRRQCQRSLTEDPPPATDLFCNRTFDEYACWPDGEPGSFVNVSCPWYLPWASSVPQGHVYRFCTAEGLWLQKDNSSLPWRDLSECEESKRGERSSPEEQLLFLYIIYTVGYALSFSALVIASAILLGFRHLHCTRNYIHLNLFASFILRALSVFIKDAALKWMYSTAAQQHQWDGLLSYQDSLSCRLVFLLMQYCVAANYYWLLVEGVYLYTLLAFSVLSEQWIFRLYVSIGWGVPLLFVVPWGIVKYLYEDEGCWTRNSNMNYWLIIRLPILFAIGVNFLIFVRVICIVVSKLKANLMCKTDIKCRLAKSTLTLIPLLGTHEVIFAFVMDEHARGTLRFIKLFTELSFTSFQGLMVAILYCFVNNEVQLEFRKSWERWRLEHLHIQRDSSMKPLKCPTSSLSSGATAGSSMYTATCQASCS
smiles,measurement,setting,value
"CC[C@H](C)[C@H](NC(=O)[C@H](Cc1ccccc1)NC(=O)[C@H](CCC(=O)O)NC(=O)[C@H](CCCCN)NC(=O)[C@H](C)NC(=O)[C@H](C)NC(=O)[C@H](CCC(N)=O)NC(=O)CNC(=O)[C@H](CCC(=O)O)NC(=O)[C@H](CC(C)C)NC(=O)[C@H](Cc1ccc(O)cc1)NC(=O)[C@H](CO)NC(=O)[C@H](CO)NC(=O)[C@@H](NC(=O)[C@H](CC(=O)O)NC(=O)[C@H](CO)NC(=O)[C@@H](NC(=O)[C@H](Cc1ccccc1)NC(=O)[C@@H](NC(=O)CNC(=O)[C@H](CCC(=O)O)NC(=O)[C@H](C)NC(=O)N(N)Cc1c[nH]cn1)[C@@H](C)O)[C@@H](C)O)C(C)C)C(=O)N[C@@H](C)C(=O)N[C@@H](Cc1c[nH]c2ccccc12)C(=O)N[C@@H](CC(C)C)C(=O)N[C@H](C(=O)N[C@@H](CCCNC(=N)N)C(=O)NCC(=O)N[C@@H](CCCNC(=N)N)C(=O)NCC(=O)O)C(C)C [AzaH7, [azaHis^7/R^34]-GLP-1(7–37)]",half-life at 0.1 mmol/l,[1],> 1440 min
same,EC50,[2],0.743 ± 0.164 nM
same,clearance,[3]; [4],~7 mL/min/kg
same,half-life,[3]; [4],100 ± 31.2 min
same,plasma half-life,"[3]; mice, single IV 1 mg kg^−1, plasma, hours converted to minutes",~100.2 min
